Our source for the IC50 values is ChEMBL document CHEMBL3886941 (2016).

pIC50: −log10 of the molar value.

This assay deals with Transient receptor potential M8 protein (Canis lupus familiaris, UniProt Q1A7N1). The assay is described as follows: Functional Assay: The functional activity of compounds of the formula (I) was determined by measuring changes in intracellular calcium concentration using a Ca2+-sensitive fluorescent dye. The changes in fluorescent signal were monitored by a fluorescence plate reader, either a FLIPR (Molecular Devices) or FDSS (Hamamatsu). Increases in intracellular Ca2+ concentration were readily detected upon activation with icilin.At 24 hrs prior to assay, HEK293 cells stably expressing canine TRPM8 were seeded in culture medium in black wall, clear-base poly-D-lysine coated 384-well plates (BD Biosciences, NJ, USA) and grown overnight in 5% CO2 at 37° C. On assay day, growth media was removed and cells were loaded with Calcium 3 Dye (Molecular Devices) for 35 min at 37° C., under 5% CO2 and then for 25 min at room temperature and atmosphere. Subsequently, cells were tested for agonist-induced increases in intracellular Ca2+ levels using FLIPR or FDSS. Cells were challenged with a compound of the Formula (I) (at varying concentrations) and intracellular Ca2+ was measured for 5 min prior to the addition of icilin to all wells to achieve a final concentration that produces approximately an 80% maximal response. EC50 or IC50 values for compounds of the present invention were determined from eight-point dose-response studies. The assay is classed as cell-based. For orientation: A change in cytosolic calcium serves as a functional read-out for many receptors and channels.
Chain of Transient receptor potential M8 protein (Q1A7N1 whole entry): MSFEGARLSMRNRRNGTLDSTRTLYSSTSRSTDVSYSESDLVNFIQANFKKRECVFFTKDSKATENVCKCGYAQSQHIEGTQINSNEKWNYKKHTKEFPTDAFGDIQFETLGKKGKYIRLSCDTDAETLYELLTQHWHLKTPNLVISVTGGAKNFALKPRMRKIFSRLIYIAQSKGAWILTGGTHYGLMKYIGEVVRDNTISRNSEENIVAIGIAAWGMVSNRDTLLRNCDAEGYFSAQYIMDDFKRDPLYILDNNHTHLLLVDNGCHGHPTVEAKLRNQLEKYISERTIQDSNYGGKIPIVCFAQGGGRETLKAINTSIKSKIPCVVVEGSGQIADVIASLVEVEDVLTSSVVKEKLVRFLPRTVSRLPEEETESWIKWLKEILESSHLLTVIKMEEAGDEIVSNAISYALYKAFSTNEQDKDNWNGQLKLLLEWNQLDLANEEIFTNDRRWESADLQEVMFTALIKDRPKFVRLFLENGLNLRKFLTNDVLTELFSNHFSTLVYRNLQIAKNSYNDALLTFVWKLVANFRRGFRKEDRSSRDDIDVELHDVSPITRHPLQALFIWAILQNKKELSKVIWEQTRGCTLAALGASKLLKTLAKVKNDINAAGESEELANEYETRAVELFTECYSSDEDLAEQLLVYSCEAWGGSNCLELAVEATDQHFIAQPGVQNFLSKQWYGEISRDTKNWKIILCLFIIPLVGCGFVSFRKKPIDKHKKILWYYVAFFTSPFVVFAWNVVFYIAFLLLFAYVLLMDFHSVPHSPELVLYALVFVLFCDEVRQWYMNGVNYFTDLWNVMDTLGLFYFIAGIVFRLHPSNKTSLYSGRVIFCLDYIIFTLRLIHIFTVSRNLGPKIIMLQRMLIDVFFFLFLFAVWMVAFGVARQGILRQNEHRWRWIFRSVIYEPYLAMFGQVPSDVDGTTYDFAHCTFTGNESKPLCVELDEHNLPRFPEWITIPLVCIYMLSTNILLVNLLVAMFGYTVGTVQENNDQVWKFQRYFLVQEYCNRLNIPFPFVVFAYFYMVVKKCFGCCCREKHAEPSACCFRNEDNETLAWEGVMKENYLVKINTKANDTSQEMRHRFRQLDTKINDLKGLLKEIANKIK
On to `O=[N+]([O-])c1cccc(CN(c2sc3ccccc3c2Br)S(=O)(=O)c2ccccc2)c1`, for which the pIC50 was 7.98. Turning to `O=S(=O)(c1ccc(-c2nnn[nH]2)cc1)N(CCCCC(F)(F)F)c1sc2ccccc2c1Br`, the pIC50 is 8.06. Take `CCS(=O)(=O)N(Cc1ccc(F)c(F)c1)c1sc2ccccc2c1C(C)=O`: the pIC50 was 7.82. For the compound `COC(=O)CCS(=O)(=O)N(CCC(F)(F)F)c1sc2ccccc2c1C`, the pIC50 was 7.62. On to `Cc1c(N(Cc2ccccc2)S(=O)(=O)c2ccc(C(=O)O)cc2)sc2ccccc12`, for which the pIC50 was 8.40. For the compound `O=S(=O)(c1ccccc1)N(CCc1ccccc1)c1sc2ccccc2c1Cl`, the pIC50 was 7.62. Turning to `CCCCN(c1sc2ccccc2c1C(C)O)S(=O)(=O)CC` (centres undefined), the pIC50 was 7.42. As for `CC(C)(C)OC(=O)N1CCCC1CN(c1sc2ccccc2c1Cl)S(=O)(=O)c1ccccc1` (centres undefined), the pIC50 is 6.69. With `O=S(=O)(c1cccs1)N(Cc1ccc(F)c(C(F)(F)F)c1)c1sc2ccccc2c1Cl`, the pIC50 is 8.22. To `CCS(=O)(=O)N(Cc1ccc(F)c(OC)c1)c1sc2ccccc2c1C(C)(C)O` belongs 8.39.

`O=S(=O)(CC(F)(F)F)N(Cc1ccc(F)c(C(F)(F)F)c1)c1sc2ccccc2c1CO`: the pIC50 is 7.82. `Cc1c(N(Cc2ccc3c(c2)OC(F)(F)O3)S(=O)(=O)c2ccc(C(=O)O)cc2)sc2ccccc12`: the pIC50 was 8.70. With `O=c1[nH]c(-c2ccc(S(=O)(=O)N(CCC(F)(F)F)c3sc4ccccc4c3Br)cc2)no1`, the pIC50 is 7.74.

For `Cc1c(N(Cc2cc(Cl)ccc2Cl)S(=O)(=O)c2ccc(C(=O)O)cc2)sc2ccccc12`, the pIC50 is 8.05. As to `CCCN(c1sc2ccccc2c1C)S(=O)(=O)c1ccc(C(=O)O)cc1`, the pIC50 was 7.28. `O=S(=O)(c1ccc(-c2nnn[nH]2)cc1)N(CCC(F)(F)F)c1sc2ccccc2c1Br`: the pIC50 is 7.72. For `COc1ccc(CN(c2sc3ccccc3c2C)S(=O)(=O)c2ccc(C(=O)O)cc2)cc1OC`, the pIC50 was 8.22.

On to `O=c1[nH]c(-c2ccc(S(=O)(=O)N(CCCCC(F)(F)F)c3sc4ccccc4c3Br)cc2)no1`, for which the pIC50 is 8.10.

Take `O=S(=O)(c1ccc(-c2nnn[nH]2)cc1)N(CCC1CC1)c1sc2ccccc2c1Br`: the pIC50 was 8.22.

One may read the pIC50 as −log10 of the IC50, conventionally taken in molar units.
